Data: patent publication US20220378756A1, “ACTIVATING PYRUVATE KINASE R” (FORMA Therapeutics, Inc., priority 2019, published 2022)

Assay: Phase 1 SAD/MAD, healthy volunteers: pharmacokinetics
Assay type: in vivo, human
Text: This is a first-in-human (FIH), Phase 1 study of Compound 1 that will characterize the safety, PK, and PD of Compound 1 after a single dose and after repeated dosing first in healthy adult volunteers and then in adolescents or adults with sickle cell disease. Initially, a dose range of Compound 1 in single ascending dose (SAD) escalation cohorts will be explored in healthy subjects. Enrollment of healthy subjects into 2-week multiple ascending dose (MAD) escalation cohorts will be initiated once the safety and PK from at least two SAD cohorts is available to inform the doses for the 2-week MAD portion of the study. The MAD cohorts will then run in parallel to the single dose cohorts. A single dose cohort is planned to understand food effects (FE) on the PK of Compound 1. […] Multiple dose studies in SCD subjects will then be initiated upon completion of MAD studies in healthy volunteers. Compound 1 will be administered in 25 mg and 100 mg tablets delivered orally.
In this study, SAD/MAD cohorts are randomized (3 to 1) to receive Compound 1 or placebo (P). Compound 1 was evaluated first in 4 healthy SAD cohorts and 4 healthy MAD (14-day dosing period) cohorts. Based on the safety, and PK/PD profile from HS, Compound 1 is then evaluated in 1 SCD SAD cohort and 2 SCD MAD cohorts. Specifically, based on the safety and pharmacokinetic/pharmacodynamics (PK/PD) profile in healthy volunteer studies, Compound 1 is evaluated in patients (pts) with SCD, first in a single dose (SD or SAD) cohort and then in multiple-dose (MD or MAD) cohorts (14-day and 12-week). Safety assessments include AEs, vital signs, ECGs and laboratory parameters. PK/PD blood sampling was performed on Day 1 (SAD/MAD) and Day 14 (MAD) and up to 72 h after the last dose and at the end-of-study visit. […]
Four healthy SAD cohorts were evaluated at doses of 200, 400, 700, and 1000 mg, and four healthy MAD cohorts received 200 to 600 mg total daily doses for 14 days at QD or BID dosing (100 mg BID, 200 mg BID, 300 mg BID, and 400 mg QD). […]

O=C([C@H](CO)c1ccccc1)N1CC2=C(C1)CN(S(=O)(=O)c1cnc3c(c1)OCCO3)C2 (single isomer, unassigned) [Compound 1]
exposure under fed/fasted conditions (food effect cohort, 200 mg): similar
observed clearance on day 1 and day 14 (healthy subjects, 14 days of dosing): unchanged
time of pharmacokinetic maximum (healthy volunteers, single dose 400 mg, FIG. 43): 1 to 2 h
